Measured values taken from ChEMBL document CHEMBL3046778, “Design, synthesis and pharmacological screening of hybrid molecules as antihypertensives” (Med Chem Res, 2011).

What was measured:
[1] = system: Rattus norvegicus; experiment: Toxicity in Rattus norvegicus Wistar (rat) assessed as heart rate at 40 mg/kg, ip measured after 30 min by ECG analysis (reference value: 307.62 +/- 0.439 bpm); format: organism-based; parameters: dose 40 mg/kg, route intraperitoneal; details: in vivo, 0.5 h
[2] = system: Rattus norvegicus; experiment: Toxicity in Rattus norvegicus Wistar (rat) assessed as heart rate at 40 mg/kg, ip measured after 45 min by ECG analysis (reference value: 307.62 +/- 0.023 bpm); format: organism-based; parameters: dose 40 mg/kg, route intraperitoneal; details: in vivo, 0.75 h
[3] = system: Heart; experiment: Inhibition of force of contraction in Hoplobatrachus tigerinus (frog) heart at log dose 2.3; format: functional
[4] = system: Rattus norvegicus; experiment: Toxicity in Rattus norvegicus Wistar (rat) assessed as Rmax at 40 mg/kg, ip measured after 45 min by ECG analysis (reference value: 0.08 +/- 0.008 mv); format: organism-based; parameters: dose 40 mg/kg, route intraperitoneal; details: in vivo, 0.75 h
[5] = system: Heart; experiment: Inhibition of force of contraction in Hoplobatrachus tigerinus (frog) heart at log dose 2; format: functional
[6] = system: Heart; experiment: Inhibition of force of contraction in Hoplobatrachus tigerinus (frog) heart at log dose 3; format: functional
[7] = system: Rattus norvegicus; experiment: Toxicity in Rattus norvegicus Wistar (rat) assessed as Rmax at 40 mg/kg, ip measured after 30 min by ECG analysis (reference value: 0.08 +/- 0.008 mv); format: organism-based; parameters: dose 40 mg/kg, route intraperitoneal; details: in vivo, 0.5 h
[8] = system: Heart; experiment: Inhibition of force of contraction in Hoplobatrachus tigerinus (frog) heart at log dose 2.9; format: functional
[9] = system: Rattus norvegicus; experiment: Toxicity in Rattus norvegicus Wistar (rat) assessed as heart rate at 40 mg/kg, ip measured after 60 min by ECG analysis (reference value: 307.62 +/- 0.053 bpm); format: organism-based; parameters: dose 40 mg/kg, route intraperitoneal; details: in vivo, 1 h
[10] = system: Rattus norvegicus; experiment: Toxicity in Rattus norvegicus Wistar (rat) assessed as Rmax at 40 mg/kg, ip measured after 60 min by ECG analysis (reference value: 0.07 +/- 0.004 mv); format: organism-based; parameters: dose 40 mg/kg, route intraperitoneal; details: in vivo, 1 h
[11] = system: Heart; experiment: Inhibition of force of contraction in Hoplobatrachus tigerinus (frog) heart at log dose 2.6; format: functional
[12] = system: Rattus norvegicus; experiment: Toxicity in Rattus norvegicus Wistar (rat) assessed as heart rate at 50 mg/kg, ip measured after 30 min by ECG analysis (reference value: 307.62 +/- 0.439 bpm); format: organism-based; parameters: dose 50 mg/kg, route intraperitoneal; details: in vivo, 0.5 h
[13] = system: Rattus norvegicus; experiment: Toxicity in Rattus norvegicus Wistar (rat) assessed as Rmax at 50 mg/kg, ip measured after 30 min by ECG analysis (reference value: 0.08 +/- 0.008 mv); format: organism-based; parameters: dose 50 mg/kg, route intraperitoneal; details: in vivo, 0.5 h
[14] = system: Rattus norvegicus; experiment: Toxicity in Rattus norvegicus Wistar (rat) assessed as Rmax at 50 mg/kg, ip measured after 60 min by ECG analysis (reference value: 0.07 +/- 0.004 mv); format: organism-based; parameters: dose 50 mg/kg, route intraperitoneal; details: in vivo, 1 h
[15] = system: Rattus norvegicus; experiment: Toxicity in Rattus norvegicus Wistar (rat) assessed as heart rate at 50 mg/kg, ip measured after 60 min by ECG analysis (reference value: 307.62 +/- 0.053 bpm); format: organism-based; parameters: dose 50 mg/kg, route intraperitoneal; details: in vivo, 1 h
[16] = system: Rattus norvegicus; experiment: Toxicity in Rattus norvegicus Wistar (rat) assessed as Rmax at 50 mg/kg, ip measured after 45 min by ECG analysis (reference value: 0.08 +/- 0.008 mv); format: organism-based; parameters: dose 50 mg/kg, route intraperitoneal; details: in vivo, 0.75 h
[17] = system: Rattus norvegicus; experiment: Toxicity in Rattus norvegicus Wistar (rat) assessed as heart rate at 50 mg/kg, ip measured after 45 min by ECG analysis (reference value: 307.62 +/- 0.023 bpm); format: organism-based; parameters: dose 50 mg/kg, route intraperitoneal; details: in vivo, 0.75 h
[18] = system: Rattus norvegicus; experiment: Toxicity in Rattus norvegicus Wistar (rat) assessed as Rmax at 30 mg/kg, ip measured after 45 min by ECG analysis (reference value: 0.08 +/- 0.008 mv); format: organism-based; parameters: dose 30 mg/kg, route intraperitoneal; details: in vivo, 0.75 h
[19] = system: Rattus norvegicus; experiment: Toxicity in Rattus norvegicus Wistar (rat) assessed as Rmax at 30 mg/kg, ip measured after 60 min by ECG analysis (reference value: 0.07 +/- 0.004 mv); format: organism-based; parameters: dose 30 mg/kg, route intraperitoneal; details: in vivo, 1 h
[20] = system: Rattus norvegicus; experiment: Toxicity in Rattus norvegicus Wistar (rat) assessed as Rmax at 30 mg/kg, ip measured after 30 min by ECG analysis (reference value: 0.08 +/- 0.008 mv); format: organism-based; parameters: dose 30 mg/kg, route intraperitoneal; details: in vivo, 0.5 h
[21] = system: Rattus norvegicus; experiment: Toxicity in Rattus norvegicus Wistar (rat) assessed as heart rate at 30 mg/kg, ip measured after 30 min by ECG analysis (reference value: 307.62 +/- 0.439 bpm); format: organism-based; parameters: dose 30 mg/kg, route intraperitoneal; details: in vivo, 0.5 h
[22] = system: Rattus norvegicus; experiment: Toxicity in Rattus norvegicus Wistar (rat) assessed as heart rate at 30 mg/kg, ip measured after 60 min by ECG analysis (reference value: 307.62 +/- 0.053 bpm); format: organism-based; parameters: dose 30 mg/kg, route intraperitoneal; details: in vivo, 1 h
[23] = system: Rattus norvegicus; experiment: Toxicity in Rattus norvegicus Wistar (rat) assessed as heart rate at 30 mg/kg, ip measured after 45 min by ECG analysis (reference value: 307.62 +/- 0.023 bpm); format: organism-based; parameters: dose 30 mg/kg, route intraperitoneal; details: in vivo, 0.75 h
[24] = system: Rattus norvegicus; experiment: Toxicity in Rattus norvegicus Wistar (rat) assessed as Rmax at 10 mg/kg, ip measured after 45 min by ECG analysis (reference value: 0.08 +/- 0.008 mv); format: organism-based; parameters: dose 10 mg/kg, route intraperitoneal; details: in vivo, 0.75 h
[25] = system: Rattus norvegicus; experiment: Toxicity in Rattus norvegicus Wistar (rat) assessed as heart rate at 10 mg/kg, ip measured after 60 min by ECG analysis (reference value: 307.62 +/- 0.053 bpm); format: organism-based; parameters: dose 10 mg/kg, route intraperitoneal; details: in vivo, 1 h
[26] = system: Rattus norvegicus; experiment: Toxicity in Rattus norvegicus Wistar (rat) assessed as heart rate at 10 mg/kg, ip measured after 45 min by ECG analysis (reference value: 307.62 +/- 0.023 bpm); format: organism-based; parameters: dose 10 mg/kg, route intraperitoneal; details: in vivo, 0.75 h
[27] = system: Rattus norvegicus; experiment: Toxicity in Rattus norvegicus Wistar (rat) assessed as Rmax at 10 mg/kg, ip measured after 60 min by ECG analysis (reference value: 0.07 +/- 0.004 mv); format: organism-based; parameters: dose 10 mg/kg, route intraperitoneal; details: in vivo, 1 h
[28] = system: Rattus norvegicus; experiment: Toxicity in Rattus norvegicus Wistar (rat) assessed as Rmax at 10 mg/kg, ip measured after 30 min by ECG analysis (reference value: 0.08 +/- 0.008 mv); format: organism-based; parameters: dose 10 mg/kg, route intraperitoneal; details: in vivo, 0.5 h
[29] = system: Rattus norvegicus; experiment: Toxicity in Rattus norvegicus Wistar (rat) assessed as heart rate at 10 mg/kg, ip measured after 30 min by ECG analysis (reference value: 307.62 +/- 0.035 bpm); format: organism-based; parameters: dose 10 mg/kg, route intraperitoneal; details: in vivo, 0.5 h

Structure (SMILES)	Activity [1] [bpm]	Activity [2] [bpm]	inhibition (INH) [3] [%]	Activity [4] [mV]	inhibition (INH) [5] [%]	inhibition (INH) [6] [%]	Activity [7] [mV]	inhibition (INH) [8] [%]	Activity [9] [bpm]	Activity [10] [mV]	inhibition (INH) [11] [%]	other results
CCOC(=O)C1=C(C)N(CC(O)COc2ccc(/C=N/C(=S)Nc3ccccc3OC)cc2)C(=S)NC1c1ccccc1[N+](=O)[O-] (stereo not given)	266.08	266.08	38	0.05	25	31	0.1	20	266.08	0.13	20	–
CCOC(=O)C1=C(C)N(CC(O)COc2ccc(/C=N/C(=S)Nc3ccccc3OC)cc2)C(=S)NC1c1cccc([N+](=O)[O-])c1 (stereo not given)	226.62	214.17	10	0.03	32	36	0.08	22	215.7	0.19	23	–
CCOC(=O)C1=C(C)N(CC(O)COc2ccc(/C=N/C(=S)Nc3ccc(OC)cc3)cc2)C(=S)NC1c1ccccc1[N+](=O)[O-] (stereo not given)	272.19	266.41	50	0.02	30	–	0.09	66	266.41	0.13	50	–
CCOC(=O)C1=C(C)N(CC(O)COc2ccc(/C=N/C(=S)Nc3ccc(OC)cc3)cc2)C(=S)NC1c1cccc([N+](=O)[O-])c1 (stereo not given)	315.87	300.22	43	0.07	50	–	0.04	50	300.22	0.14	43	–
CCOC(=O)C1=C(C)N(CC(O)COc2ccc(/C=N/C(=S)Nc3ccc(C(=O)O)cc3)cc2)C(=S)NC1c1cccc([N+](=O)[O-])c1 (stereo not given)	–	–	5	–	23	–	–	30	–	–	25	Activity [12]: 399.26 bpm; Activity [13]: 0.03 mV; Activity [14]: 0.12 mV; Activity [15]: 399.26 bpm; Activity [16]: 0.05 mV; Activity [17]: 399.26 bpm
CCOC(=O)C1=C(C)N(CC(O)COc2ccc(/C=N/C(=S)Nc3ccc(Cl)cc3)cc2)C(=S)NC1c1ccccc1[N+](=O)[O-] (stereo not given)	324.05	324.05	16	0.02	23	50	0.08	18	315.25	0.09	18	–
CCOC(=O)C1=C(C)N(CC(O)COc2ccc(/C=N/C(=S)Nc3ccc(Cl)cc3)cc2)C(=S)NC1c1cccc([N+](=O)[O-])c1 (stereo not given)	323.85	299.78	20	0.01	13	–	0.03	25	260.42	0.07	4	–
COC(=O)C1=C(C)NC(C)=C(C(=O)OC)C1c1ccccc1[N+](=O)[O-] [NIFEDIPINE]	–	–	–	–	–	–	–	–	–	–	–	Activity [18]: 0.1 mV; Activity [19]: 0.15 mV; Activity [20]: 0.04 mV; Activity [21]: 363.63 bpm; Activity [22]: 521.73 bpm; Activity [23]: 425.61 bpm
CC(C)NCC(O)COc1cccc2ccccc12 (stereo not given) [PROPRANOLOL]	–	–	–	–	–	–	–	–	–	–	–	Activity [24]: 0.02 mV; Activity [25]: 333 bpm; Activity [26]: 333 bpm; Activity [27]: 0.13 mV; Activity [28]: 0.04 mV; Activity [29]: 400 bpm
